Tested on: c-myc in 22RV-1 cells
Assay: Human c-myc ELISA assay
Format: cell-based
Settings: Homo sapiens; for Emax: 22Rv1, 18 h, read-out: Degradation of BRD4: Maximum inhibition (%) c-Myc ELISA in 22RV1 cells; for DC50: 22Rv1, read-out: Degradation of BRD4: DC50 (uM) c-Myc ELISA in 22RV1 cells
Outline: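 22RV-1 cells treated 18 h with 8-point 1:3 compound dilutions (final top 300 nM or 1 μM, 0.1% DMSO). Cells lysed in RIPA buffer with protease/phosphatase inhibitors, and c-myc protein in cleared lysate quantified by ELISA against a standard curve. DC50 reported for c-myc suppression.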

Row | SMILES | DC50 | Emax
1 | Cc1ncsc1-c1ccc(CNC(=O)[C@@H]2C[C@@H](O)CN2C(=O)[C@@H](c2cc(OCCO[C@H]3C[C@@H](NC(=O)C[C@@H]4N=C(c5ccc(Cl)cc5)c5c(sc(C)c5C)-n5c(C)nnc54)C3)no2)C(C)C)cc1 [Example 317] | < 0.01 µM | 89.9%
2 | Cc1ncsc1-c1ccc([C@H](C)NC(=O)[C@@H]2C[C@@H](O)CN2C(=O)[C@H](C(C)C)n2cc(-c3ccc(N4CCN(C(=O)C[C@@H]5N=C(c6ccc(Cl)cc6)c6c(sc(C)c6C)-n6c(C)nnc65)CC4)nc3)cn2)cc1 [Example 320] | < 0.01 µM | 97.8%
3 | Cc1ncsc1-c1ccc([C@H](C)NC(=O)[C@@H]2C[C@@H](O)CN2C(=O)[C@@H](C(C)C)n2cc(-c3ccc(N4CCN(C(=O)C[C@@H]5N=C(c6ccc(Cl)cc6)c6c(sc(C)c6C)-n6c(C)nnc65)CC4)nc3)cn2)cc1 [Example 321] | 0.1 to 1 µM | 56%
4 | Cc1ncsc1-c1ccc(CNC(=O)[C@@H]2C[C@@H](O)CN2C(=O)[C@H](c2cc(Oc3ccc(O[C@H]4C[C@@H](NC(=O)C[C@@H]5N=C(c6ccc(Cl)cc6)c6c(sc(C)c6C)-n6c(C)nnc65)C4)nc3)no2)C(C)C)cc1 [Example 324] | > 1 µM | 31.6%
5 | Cc1ncsc1-c1ccc(CNC(=O)[C@@H]2C[C@@H](O)CN2C(=O)[C@@H](c2cc(Oc3ccc(O[C@H]4C[C@@H](NC(=O)C[C@@H]5N=C(c6ccc(Cl)cc6)c6c(sc(C)c6C)-n6c(C)nnc65)C4)nc3)no2)C(C)C)cc1 [Example 325] | 0.01 to 0.1 µM | 81.5%
6 | Cc1ncsc1-c1ccc([C@H](C)NC(=O)[C@H]2C[C@H](O)CN2C(=O)[C@@H](NC(=O)c2cc3cc(O[C@H]4C[C@@H](NC(=O)C[C@@H]5N=C(c6ccc(Cl)cc6)c6c(sc(C)c6C)-n6c(C)nnc65)C4)ccc3o2)C(C)(C)C)cc1 [Example 332] | 0.1 to 1 µM | 61%
7 | Cc1ncsc1-c1ccc([C@H](C)NC(=O)[C@@H]2C[C@@H](O)CN2C(=O)[C@@H](NC(=O)c2cc3cc(O[C@H]4C[C@@H](NC(=O)C[C@@H]5N=C(c6ccc(Cl)cc6)c6c(sc(C)c6C)-n6c(C)nnc65)C4)ccc3o2)C(C)C)cc1 [Example 336] | < 0.01 µM | 98%
8 | Cc1ncsc1-c1ccc([C@H](C)NC(=O)[C@@H]2C[C@@H](O)CN2C(=O)[C@@H](NC(=O)Cc2ccc(-c3cn(CCNC(=O)C[C@@H]4N=C(c5ccc(Cl)cc5)c5c(sc(C)c5C)-n5c(C)nnc54)cn3)cc2)C(C)(C)C)cc1 [Example 337] | < 0.01 µM | 96.4%
9 | Cc1ncsc1-c1ccc([C@H](C)NC(=O)[C@@H]2C[C@@H](OC(=O)[C@@H](N)C(C)C)CN2C(=O)[C@@H](NC(=O)c2cc3cc(O[C@H]4C[C@@H](NC(=O)C[C@@H]5N=C(c6ccc(Cl)cc6)c6c(sc(C)c6C)-n6c(C)nnc65)C4)ccc3o2)C(C)(C)C)cc1 [Example 338] | < 0.01 µM | 100%
10 | Cc1ncsc1-c1ccc([C@H](C)NC(=O)[C@@H]2C[C@@H](OC(=O)CCN)CN2C(=O)[C@@H](NC(=O)c2cc3cc(O[C@H]4C[C@@H](NC(=O)C[C@@H]5N=C(c6ccc(Cl)cc6)c6c(sc(C)c6C)-n6c(C)nnc65)C4)ccc3o2)C(C)(C)C)cc1 [Example 339] | < 0.01 µM | 97%
11 | Cc1ncsc1-c1ccc([C@H](C)NC(=O)[C@@H]2C[C@@H](O)CN2C(=O)[C@@H](NC(=O)Cc2ccc(-c3cn([C@H](C)CNC(=O)C[C@@H]4N=C(c5ccc(Cl)cc5)c5c(sc(C)c5C)-n5c(C)nnc54)cn3)cc2)C(C)(C)C)cc1 [Example 340] | 0.01 to 0.1 µM | 92.2%
12 | Cc1ncsc1-c1ccc([C@H](C)NC(=O)[C@@H]2C[C@@H](O)CN2C(=O)[C@@H](NC(=O)Cc2ccc(-c3cn([C@@H](C)CNC(=O)C[C@@H]4N=C(c5ccc(Cl)cc5)c5c(sc(C)c5C)-n5c(C)nnc54)cn3)cc2)C(C)(C)C)cc1 [Example 341] | < 0.01 µM | 98.5%
13 | Cc1sc2c(c1C)C(c1ccc(Cl)cc1)=N[C@@H](CC(=O)N[C@H]1C[C@@H](Oc3ccc4oc(C(=O)N[C@H](C(=O)N5C[C@H](O)C[C@H]5C(=O)N[C@@H](C)c5ccc(-c6scnc6CO)cc5)C(C)(C)C)cc4c3)C1)c1nnc(C)n1-2 [Example 342, (2S,4R)-1-[(2S)-3,3-dimethyl-2-({5-[(1,3-cis)-3-{2-[(9S)-7-(4-chlorophenyl)-4,5,13-trimethyl-3-thia-1,8,11,12-tetraazatricyclo[8.3.0.0^2,^6]trideca-2(6),4,7,10,12-pentaen-9-yl]acetamido}cyclobutoxy]-1-benzofuran-2-yl}formamido)butanoyl]-4-hydroxy-N-[(1S)-1-{4-[4-(hydroxymethyl)-1,3-thiazol-5-yl]phenyl}ethyl]pyrrolidine-2-carboxamide] | < 0.01 µM | 100%
14 | Cc1ncsc1-c1ccc([C@H](C)NC(=O)[C@@H]2C[C@@H](OC(=O)CC(C)(C)N)CN2C(=O)[C@@H](NC(=O)c2cc3cc(O[C@H]4C[C@@H](NC(=O)C[C@@H]5N=C(c6ccc(Cl)cc6)c6c(sc(C)c6C)-n6c(C)nnc65)C4)ccc3o2)C(C)(C)C)cc1 [Example 343] | 0.01 to 0.1 µM | 87%
15 | Cc1ncsc1-c1ccc([C@H](C)NC(=O)[C@@H]2C[C@@H](OC(=O)CCCN)CN2C(=O)[C@@H](NC(=O)c2cc3cc(O[C@H]4C[C@@H](NC(=O)C[C@@H]5N=C(c6ccc(Cl)cc6)c6c(sc(C)c6C)-n6c(C)nnc65)C4)ccc3o2)C(C)(C)C)cc1 [Example 344] | 0.01 to 0.1 µM | 95.9%

The next lines start with results.

Row | DC50 | SMILES | Emax
16 | 0.1 to 1 µM | Cc1ncsc1-c1ccc([C@H](C)NC(=O)[C@@H]2C[C@@H](O)CN2C(=O)[C@@H](NC(=O)CCOCCN2CCN(C(=O)C[C@@H]3N=C(c4ccc(Cl)cc4)c4c(sc(C)c4C)-n4c(C)nnc43)CC2)C(C)(C)C)cc1 [Example 318] | 79%
17 | 0.1 to 1 µM | Cc1ncsc1-c1ccc([C@H](C)NC(=O)[C@@H]2C[C@@H](O)CN2C(=O)[C@@H](NC(=O)CCCCC(=O)N2CCN(C(=O)C[C@@H]3N=C(c4ccc(Cl)cc4)c4c(sc(C)c4C)-n4c(C)nnc43)CC2)C(C)(C)C)cc1 [Example 319] | 78.5%
18 | < 0.01 µM | Cc1ncsc1-c1ccc([C@H](C)NC(=O)[C@@H]2C[C@@H](O)CN2C(=O)[C@H](C(C)C)n2cc(-c3ccnc(N4CCN(C(=O)C[C@@H]5N=C(c6ccc(Cl)cc6)c6c(sc(C)c6C)-n6c(C)nnc65)CC4)c3)cn2)cc1 [Example 322] | 92.6%
19 | > 1 µM | Cc1ncsc1-c1ccc([C@H](C)NC(=O)[C@@H]2C[C@@H](O)CN2C(=O)[C@@H](C(C)C)n2cc(-c3ccnc(N4CCN(C(=O)C[C@@H]5N=C(c6ccc(Cl)cc6)c6c(sc(C)c6C)-n6c(C)nnc65)CC4)c3)cn2)cc1 [Example 323] | 43%
20 | 0.01 to 0.1 µM | Cc1ncsc1-c1ccc([C@H](C)NC(=O)[C@@H]2C[C@@H](O)CN2C(=O)[C@@H](NC(=O)Cc2cccc(C(=O)N3CCN(C(=O)C[C@@H]4N=C(c5ccc(Cl)cc5)c5c(sc(C)c5C)-n5c(C)nnc54)CC3)c2)C(C)(C)C)cc1 [Example 326] | 92%
21 | < 0.01 µM | Cc1ncsc1-c1ccc([C@H](C)NC(=O)[C@@H]2C[C@@H](O)CN2C(=O)[C@@H](NC(=O)COc2ccnc(N3CCN(C(=O)C[C@@H]4N=C(c5ccc(Cl)cc5)c5c(sc(C)c5C)-n5c(C)nnc54)CC3)c2)C(C)(C)C)cc1 [Example 327, (2S,4R)-1-[(2S)-2-(2-{[2-(4-{2-[(9S)-7-(4-chlorophenyl)-4,5,13-trimethyl-3-thia-1,8,11,12-tetraazatricyclo[8.3.0.0^2,^6]trideca-2(6),4,7,10,12-pentaen-9-yl]acetyl}piperazin-1-yl)pyridin-4-yl]oxy}acetamido)-3,3-dimethylbutanoyl]-4-hydroxy-N-[(1S)-1-[4-(4-methyl-1,3-thiazol-5-yl)phenyl]ethyl]pyrrolidine-2-carboxamide] | 96%
22 | 0.1 to 1 µM | Cc1ncsc1-c1ccc([C@H](C)NC(=O)[C@@H]2C[C@@H](O)CN2C(=O)[C@@H](NC(=O)COC[C@H](O)CN2CCN(C(=O)C[C@@H]3N=C(c4ccc(Cl)cc4)c4c(sc(C)c4C)-n4c(C)nnc43)CC2)C(C)(C)C)cc1 [Example 328] | 61%
23 | > 1 µM | Cc1ncsc1-c1ccc([C@H](C)NC(=O)[C@@H]2C[C@@H](O)CN2C(=O)[C@@H](NC(=O)COC[C@@H](O)CN2CCN(C(=O)C[C@@H]3N=C(c4ccc(Cl)cc4)c4c(sc(C)c4C)-n4c(C)nnc43)CC2)C(C)(C)C)cc1 [Example 329] | < 5%
24 | 0.01 to 0.1 µM | Cc1ncsc1-c1ccc([C@H](C)NC(=O)[C@@H]2C[C@@H](O)CN2C(=O)[C@@H](NC(=O)COc2ccnc(N3CCN(C(=O)C[C@@H]4N=C(c5ccc(Cl)cc5)c5c(sc(C)c5C)-n5c(C)nnc54)CC3)n2)C(C)(C)C)cc1 [Example 330] | 89%
25 | 0.1 to 1 µM | Cc1ncsc1-c1ccc([C@H](C)NC(=O)[C@@H]2C[C@@H](O)CN2C(=O)[C@@H](NC(=O)COc2nccc(N3CCN(C(=O)C[C@@H]4N=C(c5ccc(Cl)cc5)c5c(sc(C)c5C)-n5c(C)nnc54)CC3)n2)C(C)(C)C)cc1 [Example 331] | 81.5%
26 | 0.01 to 0.1 µM | Cc1ncsc1-c1ccc([C@H](C)NC(=O)[C@@H]2C[C@@H](O)CN2C(=O)[C@@H](NC(=O)CN2CCC(N3CCCN(C(=O)C[C@@H]4N=C(c5ccc(Cl)cc5)c5c(sc(C)c5C)-n5c(C)nnc54)CC3)CC2)C(C)(C)C)cc1 [Example 333] | 88%
27 | < 0.01 µM | Cc1ncsc1-c1ccc([C@H](C)NC(=O)[C@@H]2C[C@@H](O)CN2C(=O)[C@@H](NC(=O)CN2CCC(C(=O)N3CCN(C(=O)C[C@@H]4N=C(c5ccc(Cl)cc5)c5c(sc(C)c5C)-n5c(C)nnc54)CC3)CC2)C(C)(C)C)cc1 [Example 334] | 97%
28 | < 0.01 µM | Cc1ncsc1-c1ccc([C@H](C)NC(=O)[C@@H]2C[C@@H](O)CN2C(=O)[C@@H](NC(=O)CN2CCC(N3CCN(C(=O)C[C@@H]4N=C(c5ccc(Cl)cc5)c5c(sc(C)c5C)-n5c(C)nnc54)CC3)CC2)C(C)(C)C)cc1 [Example 335] | 97%
